According to US9486447B2, “Compositions and methods for controlling neuronal excitation” (The General Hospital Corporation, priority 2011, dated 2016):

Assays:
[1] = Reactive oxygen species generation (singlet oxygen sensor green, NBT); assay type: physicochemical
From the text: How might optovin activate TRPA1? When molecules absorb light, photons can excite electrons from their ground state to a […] via intersystem crossing^37. These photoactivated compounds can then undergo reactions by transferring energy or electrons to target molecules, including aqueous molecular oxygen. Optovin is a yellow-colored compound with peak absorbance at 415 nm (FIG. 4A). To determine if optovin is photochemically reactive, it was exposed to increasing intensities of 415 nm light and assayed for reactive oxygen species (ROS) generation.
Assay for singlet oxygen generation using singlet oxygen sensor green (SOSG) UV-vis absorption spectra were recorded at 20 uM in methanol using an Evolution 300 UV-Vis Spectrophotometer (Thermo Fisher Scientific Inc., Waltham, Mass.). 96-well black-sided plates were used for fluorescent probe experiments. SOSG (Molecular Probes Invitrogen, Eugene, Oreg.) as a 1 mM stock solution in DMF was added to give final concentration of 5 μM SOSG, to optovin and analogues dissolved as 5 μM solutions in 200 μL 50% H2O/CH3CN preloaded in 96-well plates. An Omnilux Clear-U LED light source (Photo Therapeutics Inc), Carlsbad, Calif.) that emits blue light 415-nm+15-nm as a homogeneous spot with an irradiance of 50 mW/cm^2 measured with a power meter (model DMM 199 with 201 standard head; Coherent, Santa Clara, Calif.) that covers an area of one half of a 96-well plate.
Fluorescence spectrophotometry was carried out with SpectraMax M5 plate reader (Molecular Devices, Sunnyvale, Calif.) using excitation and emission at 504 and 525-nm Fluorescence was read after each successive increment of blue light was delivered. As a positive control for a known photosensitizer that absorbs 415-nm light with a quantum yield of singlet oxygen of approximately 0.6 we used a conjugate between polyethylenimine and chlorin(e6) (PEI-ce6)^46.

[2] = molecular target: Alpha1D (Homo sapiens, UniProt P25100); test: NIMH PDSP binding assay; conditions: primary screening, mean of N = 4 determinations
From the text: (§1) To determine if optovin's mechanism of action could be predicted via behavioral profiling^30,32, optovin's behavioral profile was compared to the behavioral profiles of 700 annotated neuroactive compounds tested in triplicate. These compounds include ligands targeting the adrenergic, serotonergic, histaminergic, dopaminergic, cholinergic and glutamatergic pathways. […] To gain insight into optovin's mechanism of action, optovin and two active optovin analogs were profiled using the National Institutes of Mental Health Psychoactive Drug Screening Program (NIMH PDSP) to determine their activities against a panel of human and rodent CNS receptors, channels and transporters.
(§2) Activity determinations were generously provided by the National Institute of Mental Health's Psychoactive Drug Screening Program, Contract # HHSN-271-2008-00025-C(NIMH PDSP). Complete assay details are found on-line at: http://pdsp.med.unc.edu/UNC-CH %20Protocol %20Book.pdf

[3] = molecular target: 5-ht5a (Homo sapiens, UniProt P47898); test: NIMH PDSP binding assay; conditions: primary screening, mean of N = 4 determinations
5-ht5a, sequence (P47898 whole entry, species assumed): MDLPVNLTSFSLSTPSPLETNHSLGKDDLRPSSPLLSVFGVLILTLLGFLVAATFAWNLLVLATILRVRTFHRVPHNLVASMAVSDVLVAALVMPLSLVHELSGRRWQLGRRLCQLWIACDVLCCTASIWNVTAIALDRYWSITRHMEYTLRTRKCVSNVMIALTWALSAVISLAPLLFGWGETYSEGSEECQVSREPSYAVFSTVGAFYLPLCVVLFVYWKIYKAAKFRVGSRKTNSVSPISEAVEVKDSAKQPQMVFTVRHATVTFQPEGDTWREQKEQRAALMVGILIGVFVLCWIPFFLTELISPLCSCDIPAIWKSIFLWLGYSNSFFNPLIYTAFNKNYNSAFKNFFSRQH
From the text: as §1, §2

[4] = molecular target: Alpha2A (Homo sapiens, UniProt P08913); test: NIMH PDSP binding assay; conditions: primary screening, mean of N = 4 determinations
Alpha2A, sequence (P08913 whole entry): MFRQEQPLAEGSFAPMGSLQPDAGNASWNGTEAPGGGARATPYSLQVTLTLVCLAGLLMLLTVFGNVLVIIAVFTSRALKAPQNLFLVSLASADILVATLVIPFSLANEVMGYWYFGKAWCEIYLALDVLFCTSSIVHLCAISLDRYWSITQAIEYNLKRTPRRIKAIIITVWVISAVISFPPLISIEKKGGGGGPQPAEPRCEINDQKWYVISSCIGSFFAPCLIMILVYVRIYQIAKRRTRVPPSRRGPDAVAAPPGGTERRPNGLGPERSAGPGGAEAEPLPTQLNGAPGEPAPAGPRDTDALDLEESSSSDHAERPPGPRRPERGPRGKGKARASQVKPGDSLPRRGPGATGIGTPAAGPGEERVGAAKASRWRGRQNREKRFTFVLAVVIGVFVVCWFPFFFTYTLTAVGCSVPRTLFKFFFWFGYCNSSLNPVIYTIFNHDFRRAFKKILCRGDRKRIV
From the text: as §1, §2

[5] = molecular target: 5-HT1B (Homo sapiens, UniProt P28222); test: NIMH PDSP binding assay; conditions: primary screening, mean of N = 4 determinations
From the text: as §1, §2

[6] = molecular target: T1, H1 (Homo sapiens, UniProt P35367); test: NIMH PDSP binding assay; conditions: primary screening, mean of N = 4 determinations
T1 construct: NIMH PDSP
From the text: as §1, §2

[7] = molecular target: T2, D1 (Homo sapiens, UniProt P21728); test: NIMH PDSP binding assay; conditions: primary screening, mean of N = 4 determinations
T2 construct: NIMH PDSP
T2 sequence (P21728 whole entry): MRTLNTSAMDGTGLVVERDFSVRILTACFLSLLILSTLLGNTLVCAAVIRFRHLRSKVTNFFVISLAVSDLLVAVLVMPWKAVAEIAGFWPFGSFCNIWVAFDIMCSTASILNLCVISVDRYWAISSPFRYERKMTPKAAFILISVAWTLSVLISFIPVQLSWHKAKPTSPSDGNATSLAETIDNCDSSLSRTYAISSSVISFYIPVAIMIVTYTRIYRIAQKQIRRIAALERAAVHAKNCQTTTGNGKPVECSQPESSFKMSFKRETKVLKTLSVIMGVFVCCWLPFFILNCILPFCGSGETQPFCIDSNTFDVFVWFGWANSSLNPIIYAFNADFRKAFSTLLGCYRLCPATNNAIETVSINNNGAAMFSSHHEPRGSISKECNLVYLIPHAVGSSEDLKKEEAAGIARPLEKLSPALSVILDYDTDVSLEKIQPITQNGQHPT
From the text: as §1, §2

[8] = molecular target: Alpha1A (Homo sapiens, UniProt P35348); test: NIMH PDSP binding assay; conditions: primary screening, mean of N = 4 determinations
Alpha1A, sequence (P35348 whole entry): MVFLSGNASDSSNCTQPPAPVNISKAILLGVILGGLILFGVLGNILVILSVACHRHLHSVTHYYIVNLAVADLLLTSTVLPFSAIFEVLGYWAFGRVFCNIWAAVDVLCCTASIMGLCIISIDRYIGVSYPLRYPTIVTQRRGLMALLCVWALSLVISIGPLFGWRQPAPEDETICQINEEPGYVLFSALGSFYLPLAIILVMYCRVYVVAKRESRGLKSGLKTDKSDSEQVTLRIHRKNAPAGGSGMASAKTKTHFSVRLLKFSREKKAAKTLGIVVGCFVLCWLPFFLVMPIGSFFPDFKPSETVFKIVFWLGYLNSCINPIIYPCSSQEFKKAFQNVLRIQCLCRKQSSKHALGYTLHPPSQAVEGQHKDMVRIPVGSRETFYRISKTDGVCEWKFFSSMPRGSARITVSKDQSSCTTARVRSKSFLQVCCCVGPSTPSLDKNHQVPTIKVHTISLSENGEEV
From the text: as §1, §2

[9] = molecular target: A3B2 (Rattus norvegicus, UniProt P04757+P12390); test: NIMH PDSP binding assay; conditions: primary screening, mean of N = 4 determinations
A3B2, sequence (P04757 26-499): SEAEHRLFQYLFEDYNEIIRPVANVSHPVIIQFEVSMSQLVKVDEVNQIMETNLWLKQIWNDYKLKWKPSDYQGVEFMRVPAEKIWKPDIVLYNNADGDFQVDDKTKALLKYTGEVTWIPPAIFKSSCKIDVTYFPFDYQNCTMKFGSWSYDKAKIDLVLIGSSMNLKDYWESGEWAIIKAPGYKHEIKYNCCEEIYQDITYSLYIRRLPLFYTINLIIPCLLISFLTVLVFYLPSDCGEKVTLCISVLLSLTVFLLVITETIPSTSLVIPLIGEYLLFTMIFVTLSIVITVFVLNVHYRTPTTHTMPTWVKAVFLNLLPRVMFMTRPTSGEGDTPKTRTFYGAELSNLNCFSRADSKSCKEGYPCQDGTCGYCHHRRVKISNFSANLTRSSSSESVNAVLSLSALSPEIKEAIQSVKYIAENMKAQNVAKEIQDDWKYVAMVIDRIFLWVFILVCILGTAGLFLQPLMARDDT
A3B2, sequence (P12390 25-500): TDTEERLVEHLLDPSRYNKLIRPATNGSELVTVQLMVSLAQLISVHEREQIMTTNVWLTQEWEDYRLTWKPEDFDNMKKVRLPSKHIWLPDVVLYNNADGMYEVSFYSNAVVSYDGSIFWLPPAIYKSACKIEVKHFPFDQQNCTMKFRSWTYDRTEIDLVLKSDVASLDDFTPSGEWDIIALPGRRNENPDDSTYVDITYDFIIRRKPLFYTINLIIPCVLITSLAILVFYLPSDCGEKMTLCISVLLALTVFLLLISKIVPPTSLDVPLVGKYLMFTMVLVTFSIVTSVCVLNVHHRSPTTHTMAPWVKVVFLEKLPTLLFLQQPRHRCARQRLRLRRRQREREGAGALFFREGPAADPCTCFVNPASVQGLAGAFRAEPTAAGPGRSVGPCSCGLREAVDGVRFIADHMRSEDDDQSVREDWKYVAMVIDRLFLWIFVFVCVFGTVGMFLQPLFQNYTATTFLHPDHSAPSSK
From the text: as §1, §2

[10] = molecular target: T3, M3 (Homo sapiens, UniProt P20309); test: NIMH PDSP binding assay; conditions: primary screening, mean of N = 4 determinations
T3 construct: NIMH PDSP
From the text: as §1, §2

[11] = molecular target: T4, Beta1 (Homo sapiens, UniProt P08588); test: NIMH PDSP binding assay; conditions: primary screening, mean of N = 4 determinations
T4 construct: NIMH PDSP
From the text: as §1, §2

[12] = molecular target: A4B2 (Rattus norvegicus, UniProt P09483+P12390); test: NIMH PDSP binding assay; conditions: primary screening, mean of N = 4 determinations
A4B2, sequence (P09483 31-630): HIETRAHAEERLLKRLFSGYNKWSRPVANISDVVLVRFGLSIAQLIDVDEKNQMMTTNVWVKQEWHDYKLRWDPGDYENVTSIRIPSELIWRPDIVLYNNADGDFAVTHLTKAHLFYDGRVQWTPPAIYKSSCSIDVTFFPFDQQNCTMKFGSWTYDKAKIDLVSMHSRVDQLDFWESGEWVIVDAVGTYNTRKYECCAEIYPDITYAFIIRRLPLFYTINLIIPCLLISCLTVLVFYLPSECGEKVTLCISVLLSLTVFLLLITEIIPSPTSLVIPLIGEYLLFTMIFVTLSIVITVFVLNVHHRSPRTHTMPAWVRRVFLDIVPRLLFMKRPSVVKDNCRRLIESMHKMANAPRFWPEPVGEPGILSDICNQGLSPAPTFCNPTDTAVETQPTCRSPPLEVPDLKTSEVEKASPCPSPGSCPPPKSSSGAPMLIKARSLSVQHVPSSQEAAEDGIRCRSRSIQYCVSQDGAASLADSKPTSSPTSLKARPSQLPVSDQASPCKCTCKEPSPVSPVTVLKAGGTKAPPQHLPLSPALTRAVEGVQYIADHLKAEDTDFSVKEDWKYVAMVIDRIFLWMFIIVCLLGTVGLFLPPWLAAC
A4B2, sequence (P12390 25-500): as the sequence (P12390 25-500) above
From the text: as §1, §2

[13] = molecular target: 5-HT2B (Homo sapiens, UniProt P41595); test: NIMH PDSP binding assay; conditions: primary screening, mean of N = 4 determinations
From the text: as §1, §2

[14] = molecular target: A3B4 (Rattus norvegicus, UniProt P04757+P12392); test: NIMH PDSP binding assay; conditions: primary screening, mean of N = 4 determinations
From the text: as §1, §2

[15] = molecular target: T5, DAT (Homo sapiens, UniProt Q01959); test: NIMH PDSP binding assay; conditions: primary screening, mean of N = 4 determinations
T5 construct: NIMH PDSP
T5 sequence (Q01959 whole entry, species assumed): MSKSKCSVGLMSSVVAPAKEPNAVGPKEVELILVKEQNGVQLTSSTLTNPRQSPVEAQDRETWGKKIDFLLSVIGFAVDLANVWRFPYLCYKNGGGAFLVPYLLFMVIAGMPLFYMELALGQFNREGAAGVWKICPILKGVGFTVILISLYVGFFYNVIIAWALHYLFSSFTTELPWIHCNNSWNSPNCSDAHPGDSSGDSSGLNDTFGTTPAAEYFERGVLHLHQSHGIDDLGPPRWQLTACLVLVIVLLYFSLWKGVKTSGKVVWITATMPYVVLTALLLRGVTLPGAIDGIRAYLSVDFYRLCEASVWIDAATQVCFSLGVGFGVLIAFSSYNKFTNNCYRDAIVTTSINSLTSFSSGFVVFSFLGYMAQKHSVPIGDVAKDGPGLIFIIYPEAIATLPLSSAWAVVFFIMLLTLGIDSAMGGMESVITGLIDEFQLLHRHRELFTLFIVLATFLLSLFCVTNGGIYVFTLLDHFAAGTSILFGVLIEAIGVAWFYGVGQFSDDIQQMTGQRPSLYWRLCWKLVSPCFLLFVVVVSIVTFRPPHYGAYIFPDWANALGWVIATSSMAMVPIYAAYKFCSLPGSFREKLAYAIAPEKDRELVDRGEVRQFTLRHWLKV
From the text: as §1, §2

[16] = test system: GABAA; test: NIMH PDSP binding assay; conditions: primary screening, mean of N = 4 determinations
From the text: as §1, §2

[17] = test system: BZP Rat Brain Site; test: NIMH PDSP binding assay; conditions: primary screening, mean of N = 4 determinations
From the text: as §1, §2

[18] = molecular target: T6, M5 (Homo sapiens, UniProt P08912); test: NIMH PDSP binding assay; conditions: primary screening, mean of N = 4 determinations
T6 construct: NIMH PDSP
T6 sequence (P08912 whole entry): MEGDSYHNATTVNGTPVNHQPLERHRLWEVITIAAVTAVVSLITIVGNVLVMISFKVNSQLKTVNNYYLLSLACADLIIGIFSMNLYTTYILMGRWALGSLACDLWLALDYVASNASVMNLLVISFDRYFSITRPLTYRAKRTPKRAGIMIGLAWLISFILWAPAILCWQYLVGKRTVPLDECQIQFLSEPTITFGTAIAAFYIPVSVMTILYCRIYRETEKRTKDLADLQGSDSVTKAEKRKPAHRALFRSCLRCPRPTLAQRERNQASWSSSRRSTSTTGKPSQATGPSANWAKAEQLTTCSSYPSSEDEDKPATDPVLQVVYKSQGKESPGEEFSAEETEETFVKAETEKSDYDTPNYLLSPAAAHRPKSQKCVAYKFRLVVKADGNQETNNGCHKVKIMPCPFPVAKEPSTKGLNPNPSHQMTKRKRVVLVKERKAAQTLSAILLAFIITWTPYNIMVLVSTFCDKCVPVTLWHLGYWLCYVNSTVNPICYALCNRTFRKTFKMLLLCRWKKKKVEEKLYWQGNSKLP
From the text: as §1, §2

[19] = molecular target: 5-HT1D (Homo sapiens, UniProt P28221); test: NIMH PDSP binding assay; conditions: primary screening, mean of N = 4 determinations
5-HT1D, sequence (P28221 whole entry, species assumed): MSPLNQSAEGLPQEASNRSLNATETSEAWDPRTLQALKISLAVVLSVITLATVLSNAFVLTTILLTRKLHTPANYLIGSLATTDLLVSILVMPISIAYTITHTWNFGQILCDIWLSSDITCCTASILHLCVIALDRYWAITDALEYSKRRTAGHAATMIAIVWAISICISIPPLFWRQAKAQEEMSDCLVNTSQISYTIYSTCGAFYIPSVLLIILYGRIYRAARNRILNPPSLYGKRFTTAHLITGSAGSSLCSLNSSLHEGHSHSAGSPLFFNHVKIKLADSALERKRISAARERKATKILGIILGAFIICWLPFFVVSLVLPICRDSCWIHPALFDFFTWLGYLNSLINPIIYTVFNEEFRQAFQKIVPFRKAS
From the text: as §1, §2

[20] = molecular target: T7, M4 (Homo sapiens, UniProt P08173); test: NIMH PDSP binding assay; conditions: primary screening, mean of N = 4 determinations
T7 construct: NIMH PDSP
From the text: as §1, §2

[21] = molecular target: T8, KOR (Homo sapiens, UniProt P41145); test: NIMH PDSP binding assay; conditions: primary screening, mean of N = 4 determinations
T8 construct: NIMH PDSP
From the text: as §1, §2

[22] = molecular target: T9, SERT (Homo sapiens, UniProt P31645); test: NIMH PDSP binding assay; conditions: primary screening, mean of N = 4 determinations
T9 construct: NIMH PDSP
From the text: as §1, §2

SMILES: Cc1cc(/C=C2/SC(=S)NC2=O)c(C)n1-c1cccnc1 [optovin]
- hydroxyl radical and superoxide generation ([1]; 415 nm light): neither hydroxyl radicals nor superoxide
- singlet oxygen generation ([1]; 415 nm light): generates singlet oxygen
- singlet oxygen quantum yield ([1]; estimated by comparison with PEI-ce6): about 0.04
- Avg % inhibition (Alpha1D) [2]: 30.4%
- Avg % inhibition (5-ht5a) [3]: −17.7%
- Avg % inhibition (Alpha2A) [4]: 40.5%
- Avg % inhibition (5-HT1B) [5]: 11.8%
- Avg % inhibition (H1) [6]: 1.1%
- Avg % inhibition (D1) [7]: 9.0%
- Avg % inhibition (Alpha1A) [8]: −5.4%
- Avg % inhibition (A3B2) [9]: −5.6%
- Avg % inhibition (M3) [10]: 9.1%
- Avg % inhibition (Beta1) [11]: 19.4%
- Avg % inhibition (A4B2) [12]: −26.8%
- Avg % inhibition (A4B2**) [12]: −29.1%
- Avg % inhibition (5-HT2B) [13]: −2.0%
- Avg % inhibition (A3B4) [14]: −12.5%
- Avg % inhibition (DAT) [15]: 1.5%
- Avg % inhibition (GABAA) [16]: −2.2%
- Avg % inhibition (BZP Rat Brain Site) [17]: 5.3%
- Avg % inhibition (M5) [18]: 3.7%
- Avg % inhibition (5-HT1D) [19]: 12.9%
- Avg % inhibition (M4) [20]: 3.5%
- Avg % inhibition (KOR) [21]: 10.9%
- Avg % inhibition (SERT) [22]: 75.8%
